In patent US20060122153A1, “Antineoplastic ether lipid compounds with modifications at the sn-2 carbon” (priority 2003, published 2006):

What was measured:
Assay type in all cases: cell-based, human
Parameters in all cases: key: = means equivalent activity; + means that it appears to be significantly better (i.e., by ˜2x); < means it appears to be less active than ET18OCH3 (˜2x); a combination like =/+ or </+ means that activity is dependent upon the isomer; a combination like =/+ or </+ means that activity is dependent upon the isomer
COLO 205 = assay: NCI growth inhibition screen, colon panel; conditions: COLO 205, Colon; from GI50s
Procedure: (§1) Candidates deemed suitable for in vivo testing were then synthesized in large scale quantities and some of this material was sent to the NCI's Developmental Therapeutics Program for a battery of growth inhibitory studies against various human tumor cell lines (60 cell lines, 9 different panels). The remainder of the material was used to assess in vivo efficacy using murine tumor models. Additionally, studies were conducted on the lead candidates to discern mechanism of action with particular emphasis on these agents apoptotic ability as measured by caspase 3 activity. The details (materials and methods) for these various assays are described further in the following discussion.
(§2) Ten compounds were also sent to NCI's Drug Discovery Program for screening against numerous human tumor cell lines (9 panels total: renal ovarian, colon, CNS, non-small cell lung, leukemia, breast, melanoma, and prostate). The data are shown in FIGS. 2a-i which also include data regarding D- and L-ET-18-OCH3 (listed as L-EL and D-EL in the figures). Upon examining the data, one is struck by how 1R and 1a′S standout in comparison to the other compounds, especially for the renal, ovarian, colon, and CNS panels.

HCT-116 = assay: NCI growth inhibition screen, colon panel; conditions: HCT-116, Colon; from GI50s
Procedure: as §1, §2

HCT-15 = assay: NCI growth inhibition screen, colon panel; conditions: HCT-15, Colon; from GI50s
Procedure: as §1, §2

HT29 = assay: NCI growth inhibition screen, colon panel; conditions: from GI50s
Procedure: as §1, §2

SW-620 = assay: NCI growth inhibition screen, colon panel; conditions: SW-620, Colon; from GI50s
Procedure: as §1, §2

DU145 = assay: NCI growth inhibition screen, prostate panel; conditions: from GI50s
Procedure: as §1, §2

PC-3 = assay: NCI growth inhibition screen, prostate panel; conditions: PC-3, Prostate; from GI50s
Procedure: as §1, §2

A-549/ATCC = assay: NCI growth inhibition screen, non-small cell lung panel; conditions: NS cell lung, from GI50s
Procedure: as §1, §2

HOP-92 = assay: as above; conditions: HOP-92, NS cell lung; from GI50s
Procedure: as §1, §2

NCI-H23 = assay: as above; conditions: NCI-H23, NS cell lung; from GI50s
Procedure: as §1, §2

NCI-H332M = assay: as above; conditions: NS cell lung, from GI50s
Procedure: as §1, §2

NCI-H460 = assay: as above; conditions: NCI-H460, NS cell lung; from GI50s
Procedure: as §1, §2

SMILES	Performance as compared to ET-18-O—CH3 (COLO 205)	Performance as compared to ET-18-O—CH3 (HCT-116)	Performance as compared to ET-18-O—CH3 (HCT-15)	Performance as compared to ET-18-O—CH3 (HT29)	Performance as compared to ET-18-O—CH3 (SW-620)	Performance as compared to ET-18-O—CH3 (DU145)	Performance as compared to ET-18-O—CH3 (PC-3)	Performance as compared to ET-18-O—CH3 (A-549/ATCC)	Performance as compared to ET-18-O—CH3 (HOP-92)	Performance as compared to ET-18-O—CH3 (NCI-H23)	Performance as compared to ET-18-O—CH3 (NCI-H332M)	Performance as compared to ET-18-O—CH3 (NCI-H460)
CCCCCCCCCCCCCCCCCCOC[C@@H](COP(=O)([O-])OCC[N+](C)(C)C)OS(C)(=O)=O [1a′S]	0	256	512	0	1024	0	0	0	0	0	0	0
CCCCCCCCCCCCCCCCCCOCC(COP(=O)([O-])OCC[N+](C)(C)C)OS(C)(=O)=O (stereo not drawn) [Compound 1aR]	=	+	=	=	+	=	=	=	=	=	=	=
